≈ marks a conversion by molar mass, not a printed value.
tested on: C. albicans ATCC 24433; experiment: Minimal inhibitory concentration broth double-dilution assay; format: cell-based; settings: Candida albicans, ATCC24433, 24 h, 37° C., Casitone
Protocol: (§1) Minimal inhibitory concentration broth double-dilution assay. All strains were tested using the double-dilution method in 96-well plates (Corning). Yeast strains were grown in Casitone growth medium. Starter cultures were incubated for 24 h (37° C., 5% CO2, aerobic conditions) and then diluted 1:100 into fresh medium. Compounds dissolved in ethanol or in DMSO were added to the casitone broth to form the mother liquor (32 μL stock solution in 1218 μL of casitone) at the starting concentration of 64 μg/mL. Next, 100 μL of serial double dilutions of compounds in Casitone ([…], and 0.007 μg/mL) were prepared in flat-bottomed 96-well microplates (Corning). Control wells with no compounds, and wells without yeast cells containing each tested concentration of the compounds (blanks), were also prepared. An equal volume (100 μL) of yeast suspensions in Casitone broth that was prepared as follows: 900 mL doubly distilled H2O, 9 g Casitone (bacto-casitone), 5 g yeast extract, 11.5 g sodium citrate dihydrate, 20 g glucose. The yeast suspension was added to each well for a final volume of 200 μL. The ethanol or the DMSO concentrations ranged from 0.0012% to 1.3%. The final inoculum was between 5×10^4 colony-forming unit (CFU)/mL and 5×10^5 CFU/mL; identical results were obtained when using 5×10^3 CFU/mL as a final inoculum. After incubation for 24 h at 37° C. in 5% CO2, MTT (3-[4,5-dimethylthiazole-2-yl]-2,5-diphenyltetrazolium bromide; 50 μL of a 1 mg/mL solution in H2O) was added to each well followed by additional incubation at 37° C. for 2 h. Each concentration was tested in triplicate, and results were confirmed by two independent sets of experiments.

Row | Compound | MIC [µg/mL]
1 | CCN(CC)c1ccc2cc(C(=O)NCC(O)(Cn3ccnn3)c3ccc(Cl)cc3Cl)c(=O)oc2c1 (stereo not drawn) [Probe 3] | > 64
2 | CCN(CC)c1ccc2cc(C(=O)NCC(O)(Cn3ccnn3)c3ccc(F)cc3F)c(=O)oc2c1 (stereo not drawn) [Probe 2] | > 64
3 | CCC(C)n1ncn(-c2ccc(N3CCN(c4ccc(OCC5COC(Cn6cncn6)(c6ccc(Cl)cc6Cl)O5)cc4)CC3)cc2)c1=O (stereo not drawn) [ITR, itraconazole, reference compound] | 0.015 (≈ 0.0213 µM)
4 | CCN(CC)c1ccc2cc(C(=O)NCC(O)(Cn3cncn3)c3ccc(F)cc3F)c(=O)oc2c1 (stereo not drawn) [Probe 1] | 0.03 (≈ 0.0603 µM)

tested on: C. albicans SN152; experiment: as above; format: cell-based; settings: Candida albicans, 24 h, 37° C., Casitone
Protocol: as §1

Row | Compound | MIC [µg/mL]
5 | CCN(CC)c1ccc2cc(C(=O)NCC(O)(Cn3ccnn3)c3ccc(Cl)cc3Cl)c(=O)oc2c1 (stereo not drawn) [Probe 3] | > 64
6 | CCN(CC)c1ccc2cc(C(=O)NCC(O)(Cn3ccnn3)c3ccc(F)cc3F)c(=O)oc2c1 (stereo not drawn) [Probe 2] | > 64
7 | CCC(C)n1ncn(-c2ccc(N3CCN(c4ccc(OCC5COC(Cn6cncn6)(c6ccc(Cl)cc6Cl)O5)cc4)CC3)cc2)c1=O (stereo not drawn) [ITR, itraconazole, reference compound] | 0.007 (≈ 0.00992 µM)
8 | CCN(CC)c1ccc2cc(C(=O)NCC(O)(Cn3cncn3)c3ccc(F)cc3F)c(=O)oc2c1 (stereo not drawn) [Probe 1] | 0.007 (≈ 0.0141 µM)

tested on: C. glabrata ATCC 2001; experiment: as above; format: cell-based, Candida glabrata; settings: Nakaseomyces glabratus, ATCC2001, 24 h, 37° C., Casitone
Protocol: as §1

Row | Compound | MIC [µg/mL]
9 | CCN(CC)c1ccc2cc(C(=O)NCC(O)(Cn3ccnn3)c3ccc(Cl)cc3Cl)c(=O)oc2c1 (stereo not drawn) [Probe 3] | > 64
10 | CCN(CC)c1ccc2cc(C(=O)NCC(O)(Cn3ccnn3)c3ccc(F)cc3F)c(=O)oc2c1 (stereo not drawn) [Probe 2] | > 64
11 | CCC(C)n1ncn(-c2ccc(N3CCN(c4ccc(OCC5COC(Cn6cncn6)(c6ccc(Cl)cc6Cl)O5)cc4)CC3)cc2)c1=O (stereo not drawn) [ITR, itraconazole, reference compound] | 4 (≈ 5.67 µM)
12 | CCN(CC)c1ccc2cc(C(=O)NCC(O)(Cn3cncn3)c3ccc(F)cc3F)c(=O)oc2c1 (stereo not drawn) [Probe 1] | 16 (≈ 32.2 µM)

tested on: C. glabrata ATCC 66032; experiment: as above; format: cell-based, Candida glabrata; settings: Nakaseomyces glabratus, ATCC66032, 24 h, 37° C., Casitone
Protocol: as §1

Row | Compound | MIC [µg/mL]
13 | CCN(CC)c1ccc2cc(C(=O)NCC(O)(Cn3ccnn3)c3ccc(Cl)cc3Cl)c(=O)oc2c1 (stereo not drawn) [Probe 3] | > 64
14 | CCN(CC)c1ccc2cc(C(=O)NCC(O)(Cn3ccnn3)c3ccc(F)cc3F)c(=O)oc2c1 (stereo not drawn) [Probe 2] | > 64
15 | CCC(C)n1ncn(-c2ccc(N3CCN(c4ccc(OCC5COC(Cn6cncn6)(c6ccc(Cl)cc6Cl)O5)cc4)CC3)cc2)c1=O (stereo not drawn) [ITR, itraconazole, reference compound] | 0.5 (≈ 0.709 µM)
16 | CCN(CC)c1ccc2cc(C(=O)NCC(O)(Cn3cncn3)c3ccc(F)cc3F)c(=O)oc2c1 (stereo not drawn) [Probe 1] | 8 (≈ 16.1 µM)

tested on: all tested Candida strains; experiment: MIC assay, over the panel; format: cell-based; settings: not given
Protocol: as §1, with “The final inoculum was between 5×10^4 colony-forming unit (CFU)/mL and 5×10^5 CFU/mL; identical results were obtained when using 5×10^3 CFU/mL as a final inoculum. After incubation for 24 h at 37° C. in 5% CO2, MTT (3-[4,5-dimethylthiazole-2-yl]-2,5-diphenyltetrazolium bromide; 50 μL of a 1 mg/mL solution in H2O) was added to each well followed by additional incubation at 37° C. for 2 h. Each concentration was tested in triplicate, and results were confirmed by two independent sets of experiments.” left out
The ER-labeling properties were evaluated by incubating the compounds with representative strains of C. albicans and C. glabrata. […]

Row | Compound | MIC [µg/mL]
17 | CCN(CC)c1ccc2cc(C(=O)NCC(O)(Cn3ccnn3)c3ccc(Cl)cc3Cl)c(=O)oc2c1 (stereo not drawn) [Probe 3] | ≥ 64
18 | CCN(CC)c1ccc2cc(C(=O)NCC(O)(Cn3ccnn3)c3ccc(F)cc3F)c(=O)oc2c1 (stereo not drawn) [Probe 2] | ≥ 64

tested on: not listed separately; experiment: Absorption and emission spectra of fluorescent probes; format: physicochemical; settings: 10 μM in PBS, pH=7.4
Protocol: FIGS. 4A-4F show absorption and emission spectra of probes 1-6 (10 μM in PBS, pH=7.4), respectively. Emission spectrum was measured after excitation at 420 nm.
General chemistry methods and instrumentation. ^1H-NMR spectra (including 1D-TOCSY) were recorded on BrukerAvance™ 400 or 500 MHz spectrometers, and chemical shifts (reported in ppm) were calibrated to CDCl3 (d=7.26) when CDCl3 was the solvent, or to CD3OD (d=3.31) when CD3OD was the solvent. ^13C-NMR spectra were recorded on BrukerAvance™ 400 or 500 MHz spectrometers at 100 or 125 MHz. ^19F-NMR spectra were recorded on BrukerAvance™ 400 or 500 MHz spectrometers at 375 or 470 MHz. Multiplicities are reported using the following abbreviations: b=broad, s=singlet, d=doublet, t=triplet, q=quartet. Coupling constants (J) are given in Hertz. HRESI mass spectra were measured on a Waters Synapt instrument. Chemical reactions were monitored by TLC (Merck, Silica gel 60 F254). Visualization was achieved using a cerium molybdate stain (5 g (NH4)2Ce(NO3)6, 120 g (NH4)6Mo7O24·4H2O, 80 mL H2SO4, 720 mL H2O) or with UV lamp. Unless otherwise stated, all chemicals were obtained from commercial sources. Compounds were purified using Geduran® Si 60 chromatography (Merck). The SpectraMax i3x Platform spectrophotometer from Molecular Devices was used for the measurement of the excitation and absorbance spectra of the fluorescent probes.
We first measured the absorption and emission spectra of fluorescent probes 1-6. […] This 70-nm redshift effect is attributed to the effect of the halogen atoms in the phenyl ring segment of these molecules: a difluorophenyl ring in probe 2 and a dichlorophenyl in probe 3.

Row | Compound | absorption spectrum maxima [nm]
19 | CCN(CC)c1ccc2cc(C(=O)NCC(O)(Cn3ccnn3)c3ccc(Cl)cc3Cl)c(=O)oc2c1 (stereo not drawn) [Probe 3] | 430
20 | CCN(CC)c1ccc2cc(C(=O)NCC(O)(Cn3ccnn3)c3ccc(F)cc3F)c(=O)oc2c1 (stereo not drawn) [Probe 2] | 430

same assay, conditions: 10 μM in PBS, pH=7.4; excitation at 420 nm

Row | Compound | emission maxima [nm]
21 | CCN(CC)c1ccc2cc(C(=O)NCC(O)(Cn3ccnn3)c3ccc(Cl)cc3Cl)c(=O)oc2c1 (stereo not drawn) [Probe 3] | 550
22 | CCN(CC)c1ccc2cc(C(=O)NCC(O)(Cn3ccnn3)c3ccc(F)cc3F)c(=O)oc2c1 (stereo not drawn) [Probe 2] | 480

tested on: tested panel of Candida strains; experiment: Live cell imaging, ER labeling; format: cell-based; settings: panel of Candida strains (C. albicans and C. glabrata)
Protocol: Growth conditions for live cell imaging. Cells were grown to log phase in liquid YPD overnight at 30° C. in a 10 ml tube. Cells were diluted 1:10 and then incubated for 2 h at 30° C. to log phase.
Cell staining. The fluorescent probes were added to a final concentration of 10 μM for probes 1-6 to cells from a log phase culture grown in YPD broth media at 30° C. Cells were then incubated in the dark for a total of 60 min. Before imaging, cells were washed once with PBS buffer. For ER-tracker dyes, DiOC6 (1 μg/mL) and BODIPY™ TR Glibenclamide (1 μM), staining cells were incubated in a prepared Hanks' Balanced Salt Solution at 37° C. for 5 min and 30 min, respectively. For ER-tracker Blue-White DPX (1 μM), staining cells were incubated in YPD for 30 min at 30° C. For mitochondrial staining the previously reported Cy5-based mitochondrial dye was used (1 μg/mL). For staining, cells were incubated in YPD in the presence of dye for 5 min at 30° C. Cells were then washed with PBS buffer once.
Live cell imaging. Candida cells were resuspended in PBS buffer and 2 μL were placed on a glass slides and covered with glass coverslips. C. glabrata (ATCC 2001) cells treated with probes 1-6, all tested Candida cells treated with ER-tracker Blue-White DPX and inter-organelle interaction study were imaged on a MORE imaging system (TILL Photonics GmbH) with an Olympus UPlanApo 100X 1.3 NA oil immersion objective. The bandpass filter sets used to image probes 1-3 were excitation 427/10 nm and emission 510/20 nm. The bandpass filter sets used to image probes 4-6 were excitation 485/20 nm and emission 525/30 nm. The bandpass filter sets used to image ER-tracker Blue-White DPX were excitation 390/40 nm and emission 525/30 nm. The bandpass filter sets used to image Cy5-based mitochondrial dye were excitation 560/25 nm and emission 684/24 nm. C. albicans cells (ATCC 24433 and SN152) and C. glabrata (ATCC 66032) treated with probes 1-6 were imaged on a Nikon Ti microscope equipped with a Plan Apo VC 100X oil objective and a Zyla 5.5 sCMOS camera (Andor) run by NIS elements Ar software. The bandpass filter sets used to image probes 1-3, and DiOC6-stained cells were excitation 440 nm and emission 480/40 nm. The bandpass filter sets used to image cells treated with probes 4-6, excitation 470 nm and emission 525/50 nm were used. For Eno1-mCherry, excitation 585 nm and emission 630/75 nm were used. To optimize the probes, the effects of the concentration (1, 5 and 10 μM), incubation time (5, 30, 60 and 120 min) and media (YPD and HBSS) were investigated. Images were processed using ImageJ program. The smoothed imaged were generated using the convolve filter (Normalize Kernel).

Row | Compound | staining pattern
23 | CCN(CC)c1ccc2cc(C(=O)NCC(O)(Cn3ccnn3)c3ccc(Cl)cc3Cl)c(=O)oc2c1 (stereo not drawn) [Probe 3] | the distinct nuclear envelope and cortical structure of the ER were clearly observed
24 | CCN(CC)c1ccc2cc(C(=O)NCC(O)(Cn3ccnn3)c3ccc(F)cc3F)c(=O)oc2c1 (stereo not drawn) [Probe 2] | the distinct nuclear envelope and cortical structure of the ER were clearly observed

From patent publication US20200072711A1, “FLUORESCENT ENDOPLASMIC RETICULUM TRACKERS FOR LIVE CELL IMAGING OF PATHOGENIC YEAST” (Ramot at Tel Aviv University Ltd., priority 2018, published 2020)
